# Test results: patent US20220401951A1, “RAPID CELL CULTURE TEST DEVICE INCLUDING ISLAND STRUCTURES” (QuantaMatrix Inc., priority 2020, published 2022)
# Tested on: P. aeruginosa ATCC 27853
# Assay: antibiotic susceptibility test in the cell culture test device (solid thin film, microscopic observation)
# Assay type: cell-based
# Settings: device of Example 1
# Experimental: Colistin as an antibiotic was loaded into the island structure through the third inlet portion of each of the well units. The antibiotic was loaded in an amount of 10 μl, dried, and fixed in the shape illustrated in (b) of FIG. 5.
# Thereafter, 10 μl of a mixture of agarose and a bacterial solution (P. aeruginosa ATCC 27853) as a first fluid was dispensed into the first accommodation space through the first inlet portion. After the introduction of the first fluid into the first accommodation space was completed, 100 μl of a culture medium as a second fluid was introduced into the second accommodation space through the second inlet portion.
# In each of Examples 1-8 and Comparative Examples 1-4, 10 cell culture test devices having the same structure were manufactured. A determination was made as to whether the solid thin films of the first fluid were defective. The susceptibilities to the antibiotic at four selected points of each first accommodation space were evaluated. The four points (a, b, c, and d) were at right angles to the first inlet portion. […] The solid thin film in the first accommodation space was visually observed to determine whether the solid thin film was defective.
# Particularly, the effect of the antibiotic was pronounced at ≥1 mg/ml.
substance,measurement,setting,value
Colistin,response of bacteria in solid thin film to colistin,"after 6 h, 0 to 2 mg/ml colistin (FIG. 10)",Clear responses were observed
same,colistin concentration at which the effect of the antibiotic was pronounced,"observation after 6 h, concentrations tested 0, 0.12, 0.25, 0.5, 1, 2 mg/ml (FIG. 10)",≥ 1 mg/mL
